The source of these data is patent publication US20180371408A1, “CELL CULTURES AND METHODS OF USE” (priority 2017, published 2018).

Read-outs that look alike come from different tables or passages of the source.

For data set [1], the system named is reproductive system. The following applies: based on ToxCast database and literature search; cited from earlier work.
Data set [2] deals with Leydig cells (TM3). The data set can be described thus: cells. The data set is classed as cell-based, mouse. The following applies: Leydig Cell, highest concentration tested assigned as IC50 where viability did not decrease 50%, read-out: IC50.
Data set [3] has as its system Sertoli cells (TM4). The data set can be described thus: cells. As to conditions: Sertoli Cell, highest concentration tested assigned as IC50 where viability did not decrease 50%, read-out: IC50. The data set is classed as cell-based, mouse.
For data set [4], the system named is testicular co-culture: spermatogonial cells (C18-4), Sertoli cells (TM4), Leydig cells (TM3). The following applies: for IC50: Co-culture, highest concentration tested assigned as IC50 where viability did not decrease 50%.
The subject of data set [5] is reproductive system. As to conditions: in rats; cited from earlier work.
For data set [6], the system named is testicular co-culture (spermatogonial, Sertoli, Leydig cells). The data set can be described thus: Multi-parametric high-content assay of the co-culture treated with cadmium. Type of data set: cell-based, mouse. As to conditions: 0.05, 0.25, 0.50 and 1.0 μM for 48 h. An excerpt: All cultures were viewed with an Olympus inverted microscope equipped with phase-contrast optics (Olympus, Tokyo, Japan) at intervals during the culture to assess their general appearance. Images were captured and digitized with a Nikon Camera. To further examine the morphology of the cultured cells, a multi-parametric high-content analysis (HCA) was applied to quantify the F-actin cytoskeleton, nuclear shape, and cell proliferation. The spermatogonial cells were identified using typical markers of mouse germ cell nuclear antigen (GCNA1) (Developmental Studies Hybridoma Bank, http://dshb.biology.uiowa.edu, Iowa, IA)(Enders and May, 1994). Leydig cells were identified using steroidogenic acute regulatory protein (StAR)(Clark et al., 1994) (kindly gifted by Dr. Douglas M. Stocco, Texas Tech University). Sertoli cells were stained with SOX9 (Developmental Studies Hybridoma Bank, Iowa, IA). After culture for 48 and 72 h, cells were washed with phosphate buffered saline (PBS), fixed with 4% formaldehyde for 20 min at room temperature, and then washed with PBS three times. […] The multichannel images were automatically captured using an Arrayscan VTI HCS reader with a Studio 2.0 Target Activation BioApplication module (Thermo Scientific, MA). […]
Single-cell based High-content Analysis (HCA) provided multi-parameter phenotypic profiling characterization, including number, nuclear area, shape, and intensity, as previously reported (Liang et al., 2017). […] With 36 fields of each well, at least 4000 cells were analyzed per well, and single-cell based data for each channel were exported for further statistical analysis. […]
For quantitative analysis of three-dimensional F-actin cytoskeleton, we applied the Cytoskeletal Re-arrangement Assay in the Morphology Explorer Bioapplication (ThermoScientific, MA) to determine the number, dimensions and alignment—as well as the texture—of actin fibers based on the manufacturer's guideline (ThermoFisher, 2010). […]

The subject of data set [7] is Spermatogonial cells (C18-4). The data set can be described thus: cells. Type of data set: cell-based, mouse. As to conditions: Spermatogonial Cell, highest concentration tested assigned as IC50 where viability did not decrease 50%, read-out: IC50.

On to `[Cl][Cd][Cl]` [Cd, Cadmium chloride], for which the “In vivo Reproductive Toxicity” value in data set [1] is “+”. In addition, the IC50 in data set [2] (24 h) was found to be 16 µM; in data set [2] (48 h), 8.5 µM; in data set [3] (24 h), 14.6 µM; in data set [3] (48 h), 9.5 µM; in data set [4] (24 h) it was 11.3 µM; in data set [4] (48 h), 4.2 µM. The IC50 in data set [7] (24 h) and in data set [7] (48 h) was 2.1 µM throughout. Further, the “effect on cell viability (NR uptake), in words” value in data set [4] (co-culture, 48 h treatment, FIG. 6) is given as “most toxic”. Besides, the “reproductive LOAEL” value in data set [5] was 0.088 mg/kg/day. In addition, in data set [6], the F-actin cytoskeletal structure entry is “destruction of cytoskeletal structure”. In addition, in data set [6], the “cell proliferation (cell number)” value is on record as “decrease of cell proliferation (cell number)”. Further, in data set [6] (dose-dependent), the γH2AX foci formation entry is “significantly induced phosphorylation of γH2AX foci formation”.

What is called IC50 is the concentration that inhibits the measured activity by half.
